Biological target: MAPK14 (UniProt Q16539)
Test: Inhibition of MAPK14 Kinase Activity

Sequence of MAPK14 (Q16539 whole entry, looked up): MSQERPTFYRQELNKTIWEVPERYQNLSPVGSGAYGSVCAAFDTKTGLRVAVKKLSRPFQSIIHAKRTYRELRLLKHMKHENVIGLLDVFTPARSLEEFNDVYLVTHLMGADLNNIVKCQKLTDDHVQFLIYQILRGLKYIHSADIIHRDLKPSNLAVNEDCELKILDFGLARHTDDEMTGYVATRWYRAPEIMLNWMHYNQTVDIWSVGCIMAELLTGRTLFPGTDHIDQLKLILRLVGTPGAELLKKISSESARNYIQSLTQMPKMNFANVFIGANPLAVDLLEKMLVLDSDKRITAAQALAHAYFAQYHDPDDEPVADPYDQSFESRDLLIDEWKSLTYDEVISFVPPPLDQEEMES

IC50	SMILES
< 1000 nM	COc1ccc(OC(F)(F)F)cc1NC(=O)Nc1ccc(Oc2cc(C)nc(NCCN3CCCC3)n2)c2ccccc12
< 1000 nM	COc1ccc(C(F)(F)F)cc1NC(=O)Nc1ccc(Oc2cc(C)nc(NC3CC3)n2)c2ccccc12
< 1000 nM	COc1ccc(C(F)(F)F)cc1NC(=O)Nc1ccc(Oc2cc(C)nc(NCCN(C)C)n2)c2ccccc12
< 1000 nM	COCCNc1nc(C)cc(Oc2ccc(NC(=O)Nc3cc(C(F)(F)F)ccc3OC)c3ccccc23)n1
< 1000 nM	COc1ccc(C(F)(F)F)cc1NC(=O)Nc1ccc(Oc2cc(C)nc(N)n2)c2ccccc12
< 1000 nM	CCNc1nc(C)cc(Oc2ccc(NC(=O)Nc3cc(C(F)(F)F)ccc3OC)c3ccccc23)n1
< 1000 nM	CNc1nc(C)cc(Oc2ccc(NC(=O)Nc3cc(C(F)(F)F)ccc3OC)c3ccccc23)n1
< 1000 nM	COc1ccc(CC(F)(F)F)cc1NC(=O)Nc1ccc(Oc2cc(C)nc(NCCCN(C)C)n2)c2ccccc12
< 1000 nM	COc1ccc(C(F)(F)F)cc1NC(=O)Nc1ccc(Oc2cc(C)nc(NCC3CC3)n2)c2ccccc12
< 1000 nM	COc1nc(C)cc(Oc2ccc(NC(=O)Nc3cc(C(F)(F)F)ccc3OC)c3ccccc23)n1
< 1000 nM	COc1ccc(C(F)(F)F)cc1NC(=O)Nc1ccc(Oc2cc(C)nc(NCCN3CCCC3)n2)c2ccccc12
< 1000 nM	COCC(C)Nc1nc(C)cc(Oc2ccc(NC(=O)Nc3cc(C(F)(F)F)ccc3OC)c3ccccc23)n1 (centres undefined)
< 1000 nM	COc1ccc(OC(F)(F)F)cc1NC(=O)Nc1ccc(Oc2cc(C)nc(NCCN(C)C)n2)c2ccccc12
< 1000 nM	COc1ccc(C(F)(F)F)cc1NC(=O)Nc1ccc(Oc2cc(C)nc(C)n2)c2ccccc12
< 1000 nM	COCCNc1nc(C)cc(Oc2ccc(NC(=O)Nc3cc(OC(F)(F)F)ccc3OC)c3ccccc23)n1
< 1000 nM	COc1ccc(C(F)(F)F)cc1NC(=O)Nc1ccc(Oc2cc(C)nc(NCC(O)CO)n2)c2ccccc12 (centres undefined)
< 1000 nM	COc1ccc(C(F)(F)F)cc1NC(=O)Nc1ccc(Oc2cc(C)nc(NCCN3CCOCC3)n2)c2ccccc12
< 1000 nM	COc1ccc(C(F)(F)F)cc1NC(=O)Nc1ccc(Oc2cc(C)nc(NCC3CCCO3)n2)c2ccccc12 (centres undefined)
< 1000 nM	COc1ccc(C(F)(F)F)cc1NC(=O)Nc1ccc(Oc2cc(C)nc(CN(C)C)n2)c2ccccc12
< 1000 nM	CCNc1nc(C)cc(Oc2ccc(NC(=O)Nc3cc(OC(F)(F)F)ccc3OC)c3ccccc23)n1
< 1000 nM	CNc1nc(C)cc(Oc2ccc(NC(=O)Nc3cc(OC(F)(F)F)ccc3OC)c3ccccc23)n1
< 1000 nM	COc1ccc(C(F)(F)F)cc1NC(=O)Nc1ccc(Oc2cc(C)nc(NC(C)C)n2)c2ccccc12

Continued, compound first:

SMILES	IC50
COc1ccc(OC(F)(F)F)cc1NC(=O)Nc1ccc(Oc2cc(C)nc(CN3CCCC3)n2)c2ccccc12	< 1000 nM
COc1ccc(C(F)(F)F)cc1NC(=O)Nc1ccc(Oc2cc(C)nc(CN3CCOCC3)n2)c2ccccc12	< 1000 nM
COc1ccc(CC(F)(F)F)cc1NC(=O)Nc1ccc(Oc2cc(C)nc(NCCCN3CCOCC3)n2)c2ccccc12	< 1000 nM
COc1ccc(C(C(F)(F)F)C(F)(F)F)cc1NC(=O)Nc1ccc(Oc2cc(C)nc(CN3CCOCC3)n2)c2ccccc12	< 1000 nM
COc1ccc(OC(F)(F)F)cc1NC(=O)Nc1ccc(Oc2cc(C)nc(CN3CCOCC3)n2)c2ccccc12	< 1000 nM
COc1ccc(C(C)C(F)(F)F)cc1NC(=O)Nc1ccc(Oc2cc(C)nc(N)n2)c2ccccc12 (centres undefined)	< 1000 nM
COc1ccc(OC(F)(F)F)cc1NC(=O)Nc1ccc(Oc2cc(C)nc(NCCCN3CCOCC3)n2)c2ccccc12	< 1000 nM
COc1ccc(CC(F)(F)F)cc1NC(=O)Nc1ccc(Oc2cc(C)nc(N)n2)c2ccccc12	< 1000 nM
COc1ccc(C(F)(F)F)cc1NC(=O)Nc1ccc(Oc2cc(C)nc(CN3CCN(C)CC3)n2)c2ccccc12	< 1000 nM
COc1ccc(CC(F)(F)F)cc1NC(=O)Nc1ccc(Oc2cc(C)nc(OCC3CCN(C)CC3)n2)c2ccccc12	< 1000 nM
COc1c(NC(=O)Nc2ccc(Oc3cc(C)nc(C)n3)c3ccccc23)cc(C(F)(F)F)cc1NS(C)(=O)=O	< 1000 nM
COc1ccc(C(C(F)(F)F)C(F)(F)F)cc1NC(=O)Nc1ccc(Oc2cc(C)nc(N)n2)c2ccccc12	< 1000 nM
COc1ccc(OC(F)(F)F)cc1NC(=O)Nc1ccc(Oc2cc(C)nc(CN(C)C)n2)c2ccccc12	< 1000 nM
COc1ccc(C(F)(F)C(F)(F)F)cc1NC(=O)Nc1ccc(Oc2cc(C)nc(N)n2)c2ccccc12	< 1000 nM
COc1ccc(C(C(F)(F)F)C(F)(F)F)cc1NC(=O)Nc1ccc(Oc2cc(C)nc(NCCN(C)C)n2)c2ccccc12	< 1000 nM
COc1ccc(OC(F)(F)F)cc1NC(=O)Nc1ccc(Oc2cc(C)nc(OCCn3ccnc3)n2)c2ccccc12	< 1000 nM
COc1ccc(OC(F)(F)F)cc1NC(=O)Nc1ccc(Oc2cc(C)nc(CN3CCN(C)CC3)n2)c2ccccc12	< 1000 nM

Reference: the Kinase Knowledgebase extract (Sharma et al. 2016)
